# According to publication PMC11277489, “Novel Piperazine Derivatives of Vindoline as Anticancer Agents” (International Journal of Molecular Sciences, 2024):
# Read-outs that look alike come from different tables or passages of the source.
# What was measured:
# [1] = system: CCRF-CEM; assay: NCI60 one-dose screen (10 μM), Leukemia; format: cell-based; settings: Homo sapiens, read-out: Growth percent rate
# [2] = system: HL-60(TB); assay: NCI60 one-dose screen (10 μM), Leukemia; format: cell-based; settings: Homo sapiens
# [3] = system: K-562; assay: NCI60 one-dose screen (10 μM), Leukemia; format: cell-based; settings: Homo sapiens
# [4] = system: MOLT-4; assay: NCI60 one-dose screen (10 μM), Leukemia; format: cell-based, human; settings: Homo sapiens
# [5] = system: RPMI-8226; assay: NCI60 one-dose screen (10 μM), Leukemia; format: cell-based; settings: Homo sapiens
# [6] = system: A549/ATCC; assay: NCI60 one-dose screen (10 μM), Non-small Cell Lung Cancer; format: cell-based; settings: Homo sapiens
# [7] = system: EKVX; assay: as above; format: cell-based; settings: Homo sapiens, read-out: Growth percent rate
# [8] = system: HOP-62; assay: as above; format: cell-based; settings: Homo sapiens
# [9] = system: NCI-H23; assay: as above; format: cell-based; settings: Homo sapiens
# [10] = system: NCI-H322M; assay: as above; format: cell-based; settings: Homo sapiens, read-out: Growth percent rate
# [11] = system: NCI-H460; assay: as above; format: cell-based; settings: Homo sapiens
# [12] = system: NCI-H522; assay: as above; format: cell-based; settings: Homo sapiens
# [13] = system: COLO 205; assay: NCI60 one-dose screen (10 μM), Colon Cancer; format: cell-based, human; settings: Homo sapiens
# [14] = system: HCC-2998; assay: NCI60 one-dose screen (10 μM), Colon Cancer; format: cell-based; settings: Homo sapiens
# [15] = system: HCT-116; assay: NCI60 one-dose screen (10 μM), Colon Cancer; format: cell-based; settings: Homo sapiens
# [16] = system: HCT-15; assay: NCI60 one-dose screen (10 μM), Colon Cancer; format: cell-based; settings: Homo sapiens
# [17] = system: HT29; assay: NCI60 one-dose screen (10 μM), Colon Cancer; format: cell-based; settings: Homo sapiens
# [18] = system: KM12; assay: NCI60 one-dose screen (10 μM), Colon Cancer; format: cell-based, human; settings: Homo sapiens
# [19] = system: SW-620; assay: NCI60 one-dose screen (10 μM), Colon Cancer; format: cell-based; settings: Homo sapiens
# [20] = system: SF-295; assay: NCI60 one-dose screen (10 μM), CNS Cancer; format: cell-based; settings: Homo sapiens
# [21] = system: SF-539; assay: NCI60 one-dose screen (10 μM), CNS Cancer; format: cell-based, human; settings: Homo sapiens
# [22] = system: SNB-19; assay: NCI60 one-dose screen (10 μM), CNS Cancer; format: cell-based; settings: Homo sapiens
# [23] = system: SNB-75; assay: NCI60 one-dose screen (10 μM), CNS Cancer; format: cell-based, human; settings: Homo sapiens
# [24] = system: U251; assay: NCI60 one-dose screen (10 μM), CNS Cancer; format: cell-based; settings: Homo sapiens
# [25] = system: MALME-3M; assay: NCI60 one-dose screen (10 μM), Melanoma; format: cell-based; settings: Homo sapiens, read-out: Growth percent rate
# [26] = system: M14; assay: NCI60 one-dose screen (10 μM), Melanoma; format: cell-based; settings: Homo sapiens
# [27] = system: MDA-MB-435; assay: NCI60 one-dose screen (10 μM), Melanoma; format: cell-based; settings: Homo sapiens
# [28] = system: SK-MEL-2; assay: NCI60 one-dose screen (10 μM), Melanoma; format: cell-based; settings: Homo sapiens
# [29] = system: SK-MEL-28; assay: NCI60 one-dose screen (10 μM), Melanoma; format: cell-based; settings: Homo sapiens
# [30] = system: SK-MEL-5; assay: NCI60 one-dose screen (10 μM), Melanoma; format: cell-based, human; settings: Homo sapiens
# [31] = system: UACC-257; assay: NCI60 one-dose screen (10 μM), Melanoma; format: cell-based; settings: Homo sapiens
# [32] = system: IGROV1; assay: NCI60 one-dose screen (10 μM), Ovarian Cancer; format: cell-based; settings: Homo sapiens
# [33] = system: OVCAR-3; assay: NCI60 one-dose screen (10 μM), Ovarian Cancer; format: cell-based; settings: Homo sapiens
# [34] = system: OVCAR-8; assay: NCI60 one-dose screen (10 μM), Ovarian Cancer; format: cell-based; settings: Homo sapiens
# [35] = system: 786–0; assay: NCI60 one-dose screen (10 μM), Renal Cancer; format: cell-based; settings: Homo sapiens
# [36] = system: A498; assay: NCI60 one-dose screen (10 μM), Renal Cancer; format: cell-based; settings: Homo sapiens
# [37] = system: ACHN; assay: NCI60 one-dose screen (10 μM), Renal Cancer; format: cell-based; settings: Homo sapiens, read-out: Growth percent rate
# [38] = system: CAKI-1; assay: NCI60 one-dose screen (10 μM), Renal Cancer; format: cell-based; settings: Homo sapiens
# [39] = system: SN12C; assay: NCI60 one-dose screen (10 μM), Renal Cancer; format: cell-based; settings: Homo sapiens, read-out: Growth percent rate
# [40] = system: TK-10; assay: NCI60 one-dose screen (10 μM), Renal Cancer; format: cell-based; settings: Homo sapiens
# [41] = system: MCF7; assay: NCI60 one-dose screen (10 μM), Breast Cancer; format: cell-based; settings: Homo sapiens
# [42] = system: HS 578T; assay: NCI60 one-dose screen (10 μM), Breast Cancer; format: cell-based; settings: Homo sapiens, read-out: Growth percent rate
# [43] = 10 μM, Non-small Cell Lung Cancer
structure (smiles),measurement,setting,value
CCC12C=CCN3CCC4(c5cc(NC(=O)CN6CCN(Cc7ccc(C(F)(F)F)cc7)CC6)c(OC)cc5N(C)C4C(O)(C(=O)OC)C1OC(C)=O)C32 (stereo not drawn) [Compound 18],activity at 10 µM,[1],39.4%
same,activity at 10 µM,"[2]; HL-60, read-out: Growth percent rate",42.6%
same,activity at 10 µM,"[3]; K562, read-out: Growth percent rate",43.8%
same,activity at 10 µM,"[4]; MOLT-4, read-out: Growth percent rate",16.7%
same,activity at 10 µM,"[5]; RPMI-8226, read-out: Growth percent rate",17.4%
same,activity at 10 µM,"[6]; A549, read-out: Growth percent rate",54.1%
same,activity at 10 µM,[7],61.6%
same,activity at 10 µM,"[8]; HOP-62, read-out: Growth percent rate",86.1%
same,activity at 10 µM,"[9]; NCI-H23, read-out: Growth percent rate",73.1%
same,activity at 10 µM,[10],64.6%
same,activity at 10 µM,"[11]; NCI-H460, read-out: Growth percent rate",62.1%
same,activity at 10 µM,"[12]; NCI-H522, read-out: Growth percent rate",55.2%
same,activity at 10 µM,"[13]; COLO 205, read-out: Growth percent rate",56.5%
same,activity at 10 µM,"[14]; HCC 2998, read-out: Growth percent rate",79.1%
same,activity at 10 µM,"[15]; HCT-116, read-out: Growth percent rate",46.4%
same,activity at 10 µM,"[16]; HCT-15, read-out: Growth percent rate",49.7%
same,activity at 10 µM,"[17]; HT-29, read-out: Growth percent rate",39.3%
same,activity at 10 µM,"[18]; KM12, read-out: Growth percent rate",83%
same,activity at 10 µM,"[19]; SW-620, read-out: Growth percent rate",87%
same,activity at 10 µM,"[20]; SF-295, read-out: Growth percent rate",75.4%
same,activity at 10 µM,"[21]; SF-539, read-out: Growth percent rate",73.1%
same,activity at 10 µM,"[22]; SNB-19, read-out: Growth percent rate",47.4%
same,activity at 10 µM,"[23]; SNB-75, read-out: Growth percent rate",20.3%
same,activity at 10 µM,"[24]; U-251, read-out: Growth percent rate",74.8%
same,activity at 10 µM,[25]; Malme-3M,73.3%
same,activity at 10 µM,"[26]; M14, read-out: Growth percent rate",67.2%
same,activity at 10 µM,"[27]; MDA-MB-435, read-out: Growth percent rate",63.9%
same,activity at 10 µM,"[28]; SK-MEL-2, read-out: Growth percent rate",72.9%
same,activity at 10 µM,"[29]; SK-MEL-28, read-out: Growth percent rate",90.8%
same,activity at 10 µM,"[30]; SK-MEL-5, read-out: Growth percent rate",21.2%
same,activity at 10 µM,"[31]; UACC-257, read-out: Growth percent rate",80.6%
same,activity at 10 µM,"[32]; IGROV-1, read-out: Growth percent rate",71.3%
same,activity at 10 µM,"[33]; OVCAR-3, read-out: Growth percent rate",84.5%
same,activity at 10 µM,"[34]; OVCAR-8, read-out: Growth percent rate",72%
same,activity at 10 µM,"[35]; 786-0, read-out: Growth percent rate",75.5%
same,activity at 10 µM,"[36]; A498, read-out: Growth percent rate",78.7%
same,activity at 10 µM,[37],67.3%
same,activity at 10 µM,"[38]; CAKI-1, read-out: Growth percent rate",33%
same,activity at 10 µM,[39],59.3%
same,activity at 10 µM,"[40]; TK-10, read-out: Growth percent rate",81.5%
same,activity at 10 µM,"[41]; MCF7, read-out: Growth percent rate",32.6%
same,activity at 10 µM,[42]; Hs-578T,62.5%
CC[C@]12C=CCN3CC[C@@]4(c5ccc(OC)cc5N(C)[C@H]4[C@@](O)(C(=O)OC)[C@@H]1OC(=O)CCCN1CCN(Cc4ccc(F)cc4)CC1)[C@@H]32 [Compound 24],activity at 10 µM,"[1]; 10 μM, Leukemia",12.7%
same,activity at 10 µM,"[2]; 10 μM, HL-60(TB), Leukemia, read-out: Growth percent rate",7.68%
same,activity at 10 µM,"[3]; K562, 10 μM, K-562, Leukemia, read-out: Growth percent rate",0.4%
same,activity at 10 µM,"[4]; 10 μM, MOLT-4, Leukemia, read-out: Growth percent rate",6.28%
same,activity at 10 µM,"[5]; 10 μM, RPMI-8226, Leukemia, read-out: Growth percent rate",20.1%
same,activity at 10 µM,"[6]; 10 μM, A549/ATCC, Non-small Cell Lung Cancer, read-out: Growth percent rate",51.2%
same,activity at 10 µM,[7]; [43],40.3%
same,activity at 10 µM,"[8]; 10 μM, HOP-62, Non-small Cell Lung Cancer, read-out: Growth percent rate",70.1%
same,activity at 10 µM,"[9]; 10 μM, NCI-H23, Non-small Cell Lung Cancer, read-out: Growth percent rate",74.4%
same,activity at 10 µM,[10]; [43],71.7%
same,activity at 10 µM,"[11]; 10 μM, NCI-H460, Non-small Cell Lung Cancer, read-out: Growth percent rate",30.6%
same,activity at 10 µM,"[12]; 10 μM, NCI-H522, Non-small Cell Lung Cancer, read-out: Growth percent rate",27.3%
same,activity at 10 µM,"[13]; 10 μM, COLO 205, Colon Cancer, read-out: Growth percent rate",-59.6%
same,activity at 10 µM,"[14]; 10 μM, HCC-2998, Colon Cancer, read-out: Growth percent rate",-62.4%
same,activity at 10 µM,"[15]; 10 μM, HCT-116, Colon Cancer, read-out: Growth percent rate",24.1%
same,activity at 10 µM,"[16]; 10 μM, HCT-15, Colon Cancer, read-out: Growth percent rate",15.7%
same,activity at 10 µM,"[17]; HT-29, 10 μM, HT29, Colon Cancer, read-out: Growth percent rate",1.44%
same,activity at 10 µM,"[18]; 10 μM, KM12, Colon Cancer, read-out: Growth percent rate",45.7%
same,activity at 10 µM,"[19]; 10 μM, SW-620, Colon Cancer, read-out: Growth percent rate",64.3%
same,activity at 10 µM,"[20]; 10 μM, SF-295, CNS Cancer, read-out: Growth percent rate",70.2%
same,activity at 10 µM,"[21]; 10 μM, SF-539, CNS Cancer, read-out: Growth percent rate",14.7%
same,activity at 10 µM,"[22]; 10 μM, SNB-19, CNS Cancer, read-out: Growth percent rate",49.1%
same,activity at 10 µM,"[23]; 10 μM, SNB-75, CNS Cancer, read-out: Growth percent rate",-0.13%
same,activity at 10 µM,"[24]; U-251, 10 μM, U251, CNS Cancer, read-out: Growth percent rate",40.3%
same,activity at 10 µM,"[25]; 10 μM, MALME-3M, Melanoma",-97.2%
same,activity at 10 µM,"[26]; 10 μM, M14, Melanoma, read-out: Growth percent rate",-77.9%
same,activity at 10 µM,"[27]; 10 μM, MDA-MB-435, Melanoma, read-out: Growth percent rate",38.7%
same,activity at 10 µM,"[28]; 10 μM, SK-MEL-2, Melanoma, read-out: Growth percent rate",-26.1%
same,activity at 10 µM,"[29]; 10 μM, SK-MEL-28, Melanoma, read-out: Growth percent rate",-45.3%
same,activity at 10 µM,"[30]; 10 μM, SK-MEL-5, Melanoma, read-out: Growth percent rate",-98.3%
same,activity at 10 µM,"[31]; 10 μM, UACC-257, Melanoma, read-out: Growth percent rate",-72.7%
same,activity at 10 µM,"[32]; IGROV-1, 10 μM, IGROV1, Ovarian Cancer, read-out: Growth percent rate",25.1%
same,activity at 10 µM,"[33]; 10 μM, OVCAR-3, Ovarian Cancer, read-out: Growth percent rate",50.6%
same,activity at 10 µM,"[34]; 10 μM, OVCAR-8, Ovarian Cancer, read-out: Growth percent rate",66%
same,activity at 10 µM,"[35]; 10 μM, 786-0, Renal Cancer, read-out: Growth percent rate",31.4%
same,activity at 10 µM,"[36]; 10 μM, A498, Renal Cancer, read-out: Growth percent rate",58.3%
same,activity at 10 µM,"[37]; 10 μM, Renal Cancer",33.7%
same,activity at 10 µM,"[38]; 10 μM, CAKI-1, Renal Cancer, read-out: Growth percent rate",5.13%
same,activity at 10 µM,"[39]; 10 μM, Renal Cancer",43.9%
same,activity at 10 µM,"[40]; 10 μM, TK-10, Renal Cancer, read-out: Growth percent rate",42.6%
same,activity at 10 µM,"[41]; 10 μM, MCF7, Breast Cancer, read-out: Growth percent rate",6.31%
same,activity at 10 µM,"[42]; 10 μM, HS 578T, Breast Cancer",56.4%
